Measured values from US5371225A, “Tetracyclic compounds” (Kyowa Hakko Kogyo Co., Ltd., priority 1992, dated 1994).

Assays:
[1] = test system: spleen cells (antibody production, direct PFC count); experiment: Plaque Forming Cell Assay (inhibition of antibody production); format: cell-based, Balb/c strain mice; conditions: Mus musculus, Erythrocyte, 120 h; 10^-6 M; spleen cells of mice sensitized with sheep erythrocytes, cultured 5 days; read-out: Inhibition rate
Method: The plaque forming cell assay was carried out by the following manner with reference to the method of Jerne et al. [Science, 140, 405 (1963) ]and the method of Yamamoto et al. [Drugs Experimental Clinical Research, III(1), 5 (1982)].
Male Balb/c strain mice (7-week-old) (Charles River Co.) were sensitized with 1×10^8 sheep erythrocytes (product of Biotest Research Institute) administered via the caudal vein, and the spleens were extirpated after 6 or 7 days after the sensitization. The extirpated spleens were immersed in Hanks' solution (Nissui Seiyaku) to make a cell suspension, which was then filtered, followed by centrifugal separation at 1200 rpm for 5 minutes. After centrifugal separation, the supernatant was discarded and the precipitate was treated with Tris·NH4 Cl solution to remove the erythrocytes, and then washed three times with Hanks' solution. After discarding the supernatant, the cells were suspended in an RPMI-1640 medium (Nissui Seiyaku) containing 10% bovine fetal serum (Gibco Co. ), 50 μg/ml of streptomycin (Meiji Seika), […] of penicillin (Meiji Seika) and 2mercaptoethanol (5×10^-5 M). In each well of a micro culture plate (NUNK Co., Ltd., 24 wells) were put 2 ml of the mixture of the cell suspension containing 1×10^7 of spleen cells, 5×10^6 sheep erythrocytes and a test compound solution (10^-6 M) obtained by diluting the test compound dissolved in dimethylsulfoxide (10^-2 M) with the above mentioned RPMI-1640, and the cells were cultured at 37° C. for 5 days.
After the completion of the culturing, the cells were subjected to centrifugal separation at 2000 rpm for 5 minutes, and the resulting supernatant was removed. The precipitate was suspended in 1 ml of Hanks' solution, again subjected to centrifugal separation, suspended in 1 ml of Hanks' solution, and then, 50 μl of the suspension and 50 μl of sheep erythrocytes were added to 400 μl of 0.25% agarose/Hanks' solution heated to 50° C. in advance, and the mixture was scattered on a glass slide, placed on a plaque assay plate, and together with guinea pig complement (Cedarlene Institute) diluted 40-fold with a phosphate buffer solution, incubated at 37° C. for 1 to 2 hours. The number of the appearing direct plaque cells (direct PFC count) in suspension was counted.
The inhibition rate of the antibody production of the test compound was determined by the following equation. [formula]
The compound used for comparison was 5,6-dihydro-9-fluoro-3-phenylbenz[c]acridine-7-carboxylic acid [Japanese Published Unexamined Patent Application No. 233661/90, hereinafter referred to as Compound (A)]represented by formula (A). [drawing 12]
PFC count in control means PFC count in the absence of the test compound (dimethylsulfoxide alone).

[2] = test system: spleen cells (antibody production, direct PFC count); experiment: as above; format: cell-based, Balb/c strain mice; conditions: Mus musculus, Erythrocyte, 120 h, spleen cells of mice sensitized with sheep erythrocytes, cultured 5 days, read-out: Inhibition rate; for inhibition at 10 µM: 10^-5 M; for inhibition at 0.1 µM: 10^-7 M

Structure (SMILES)	inhibition at 1 µM [1] [%]	inhibition at 10 µM [2] [%]	inhibition at 0.1 µM [2] [%]
O=C(O)c1c2c(nc3ccc(F)cc13)-c1ccc(-c3ccccc3F)cc1CC2 [Compound 2, 5,6-Dihydro-9-fluoro-3-(2-fluorophenyl) ben z [c]acridine-7carboxylicacid]	94.4	99.4	57.1
CC1Cc2c(nc3ccc(F)cc3c2C(=O)O)-c2ccc(-c3ccccc3F)cc21 (centres unmarked) [Compound 5, 5,6-Dihydro-9-fluoro-3-(2-fluorophenyl)-5methylbenz[c]acridine-7-carboxylicacid]	64.6	98.7	
O=C(O)c1c2c(nc3ccc(F)cc13)-c1ccc(-c3ccccc3)cc1CC2 [A, 5,6-dihydro-9-fluoro-3-phenylbenz[c]acridine-7-carboxylic acid, reference compound]	45.9	78.6	
CC1Cc2cc(-c3ccccc3F)ccc2-c2nc3ccc(F)cc3c(C(=O)O)c21 (centres unmarked) [Compound 8]	80.2	98.7	
CC1(C)Cc2c(nc3ccc(F)cc3c2C(=O)O)-c2ccc(-c3ccccc3F)cc21 [Compound 7]	75.3	98.1	
O=C(O)c1c2c(nc3ccc(F)cc13)-c1ccc(-c3ccccc3F)cc1CCC2 [Compound 3, 6,7-Dihydro-10-fluoro-3-(2-fluorophenyl) -5Hbenzo [6, 7]cyclohepta [1,2-b]quinoline-8-carboxylic acid]	80.3	83.5	55.4
